Results taken from PubChem BioAssay AID1671212.

Biological target: Casein kinase I isoform gamma-3 (Homo sapiens) (UniProt Q9Y6M4)
Assay: PubChem AID 1671212
Settings: Z'-LYTE FRET peptide phosphorylation, recombinant CSNK1G3

Casein kinase I isoform gamma-3 (Homo sapiens), sequence (Q9Y6M4 whole entry, looked up, canonical isoform): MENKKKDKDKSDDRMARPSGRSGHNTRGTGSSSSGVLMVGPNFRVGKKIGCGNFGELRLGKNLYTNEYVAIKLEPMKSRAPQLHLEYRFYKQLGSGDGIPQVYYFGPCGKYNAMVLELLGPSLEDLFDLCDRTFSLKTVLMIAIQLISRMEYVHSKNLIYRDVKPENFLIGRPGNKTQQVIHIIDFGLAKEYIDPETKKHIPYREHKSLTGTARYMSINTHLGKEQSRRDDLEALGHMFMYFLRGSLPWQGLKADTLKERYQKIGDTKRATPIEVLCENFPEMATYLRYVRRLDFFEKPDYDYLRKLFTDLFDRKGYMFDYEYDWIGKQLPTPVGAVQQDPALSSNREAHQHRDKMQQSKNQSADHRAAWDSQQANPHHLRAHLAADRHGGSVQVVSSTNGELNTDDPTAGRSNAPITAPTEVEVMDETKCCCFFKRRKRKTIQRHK

IC50: 69.9 µM
SMILES: Brc1c(Br)c(Br)c2n[nH]nc2c1Br
